Measured values taken from US8475848B2, “Cosmetic composition having anti-radical properties and corresponding application method” (Yves Saint Laurent Parfums, priority 2007, dated 2013).

Columns and labels:
[1] = DPPH test on pure extracts (reduction of DPPH, optical density); type: biochemical; conditions: for % control (OD) / Activity (DPPH reduction): DPPH test
Source text: (§1) The activity of the pure extracts was studied by means of two biochemical tests: one was based on the reduction of 2,2-diphenyl-1-picrylhydrazyl (DPPH) by the anti-oxidants, and the other was based on the measurement of hydrogen peroxide (H2O2) in the reaction media. H2O2 is trapped by a specific reagent, “AmplexRed”. 2,2-diphenyl-1-picrylhydrazyl (DPPH) is a stable radical compound that is reduced to 1,1-diphenyl-2-picrylhydrazine by anti-oxidants. This reduction is followed by a color change in the DPPH solution (optical density measurement).
(§2) The pure extracts as well as the anti-oxidant references (α-tocopherol and BHA: butylated hydroxyanisole for DPPH, BHA alone for AmplexRed) were dissolved in ethanol. Controls using ethanol alone were produced in order to verify the absence of interference of this solvent.
The products for this test were tested starting from a concentration of 1 mg/ml in a power of ten series. The alpha-tocopherol positive control was tested at a concentration of 0.1 μM [micromolar] and the BHA was tested at a concentration of 50 μM.

irradiated skin explants = assay: Lipid peroxidation test on irradiated skin explants, extracts associated with an insoluble mineral substrate dispersed in carnation oil; type: cell-based; conditions: reference (positive control), 5 mg/cm^2 topical, UVA+B
Method: Study of the activity of extracts associated with an insoluble mineral substrate dispersed in carnation oil were carried out using a lipid peroxidation test on irradiated skin explants. This test, which was carried out by applying the products topically, meant that the effects of non-hydrosoluble extracts could be studied in vitro.
Upon receipt, the skin explants were cut and placed in culture.
The test products or the reference (positive control=BHA) were then applied to the surface of the explants in a quantity of 5 mg/cm^2 [milligrams/square centimeter] and the explants were placed in an incubator for 24 h [hours] at 37° C. in the presence of 95% air and 5% CO2.
After incubation and washing, the explants for each series were exposed to irradiation using ultraviolet A and B (UVA+B) radiation. Irradiation was carried out using a SOL500 Sun Simulator lamp with an H2 filter and the exposure conditions were as follows: • UVA+B filter: • UVA: power 11.5 mW/cm^2 [milliwatt/square centimeter] i.e. 678.6 mJ/cm^2/minute [millijoule/square centimeter/minute]; • UVB: power 0.78 mW/cm^2, i.e. 47.1 mJ/cm^2/minute; • Irradiation period: 21 minutes; • i.e. approximately 1 J/cm^2 of UVB and 14 J/cm^2 of UVA.
Three other untreated control explants were kept away from the light. […]
The epidermis was then extracted and the viability of the cells was evaluated using MTT reduction. […]

[2] = H2O2/AmplexRed test on pure extracts (fluorescence); type: biochemical
Source text: as §1
AmplexRed is a compound which reacts in a stoichiometric manner with H2O2, producing a fluorescent red compound, resofurin, which can be measured by fluorescence. This test can detect small quantities of H2O2.
as §2
The products for this test were tested starting from a concentration of 1 μg/ml in a power of ten series. The BHA positive control was tested at concentrations of 50 μM and 500 μM.

Compound | % control (OD) ([1]; 50 μM) | Activity (DPPH reduction) ([1]; 50 μM) | production of lipid peroxides after irradiation (in words) (irradiated skin explants) | % control (fluorescence intensity) ([2]; 50 μM) | Activity (reduction of free H2O2) ([2]; 50 μM) | % control (fluorescence intensity) ([2]; 500 μM) | Activity (reduction of free H2O2) ([2]; 500 μM) | % control (OD) ([1]; 0.1 μM) | Activity (DPPH reduction) ([1]; 0.1 μM) | reduction of DPPH (in words) ([1]; reference, 0.1 μM)
COc1ccc(O)c(C(C)(C)C)c1 [BHA, butylated hydroxyanisole] | 74% | +/− (25% reduction) | greatly reduced the production of lipid peroxides | 38% | ++ (strong reduction more than 50%) | 34% | ++ (strong reduction more than 50%) |  |  | 
Cc1c(C)c2c(c(C)c1O)CC[C@@](C)(CCC[C@H](C)CCC[C@H](C)CCCC(C)C)O2 [Tocopherol, α-tocopherol] |  |  |  |  |  |  |  | 9% | ++ (large reduction more than 50%) | clearly reduced the DPPH
